Results from ChEMBL document CHEMBL4825715, “Novel METTL3 Modulators for Treating Acute Myeloid Leukemia (AML)” (ACS Med Chem Lett, 2021).

How the values were obtained:
[1] = target: T1, N6-adenosine-methyltransferase catalytic subunit (Homo sapiens, UniProt Q86U44); assay: Inhibition of METTL3 (unknown origin) using 3' biotinylated RNA (UCUGGACUAAA) and 3H-SAM as a substrate preincubated for 5 mins followed by substrate addition incubated for 30 mins by scintillation counting method
[2] = target: T1, N6-adenosine-methyltransferase catalytic subunit; assay: Inhibition of METTL3-mediated m6A methylation in human […] cells assessed as reduction in mRNA level measured after 24 hrs by LC-MS/MS analysis; format: cell-based, MOLM-13

T1 sequence (Q86U44 whole entry): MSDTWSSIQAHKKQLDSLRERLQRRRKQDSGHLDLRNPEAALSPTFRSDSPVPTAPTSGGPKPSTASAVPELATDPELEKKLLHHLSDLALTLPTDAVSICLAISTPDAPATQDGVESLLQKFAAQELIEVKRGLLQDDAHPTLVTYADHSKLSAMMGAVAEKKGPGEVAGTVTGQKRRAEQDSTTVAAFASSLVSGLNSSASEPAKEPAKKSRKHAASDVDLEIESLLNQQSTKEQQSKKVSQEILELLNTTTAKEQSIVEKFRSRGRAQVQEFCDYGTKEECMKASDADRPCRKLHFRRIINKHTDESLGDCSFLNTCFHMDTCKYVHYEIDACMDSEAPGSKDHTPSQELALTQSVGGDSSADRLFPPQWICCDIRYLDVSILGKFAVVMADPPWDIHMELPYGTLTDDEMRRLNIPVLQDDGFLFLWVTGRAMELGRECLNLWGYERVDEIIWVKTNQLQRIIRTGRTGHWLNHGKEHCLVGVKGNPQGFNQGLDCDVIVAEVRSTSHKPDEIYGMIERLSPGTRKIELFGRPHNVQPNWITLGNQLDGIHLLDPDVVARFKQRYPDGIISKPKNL

Row | SMILES | IC50 [1] [nM] | IC50 [2] [nM]
1 | CCNc1ccc2ccc(OC[C@H]3O[C@@H](n4cc(C5CCCC5)c5c(N)ncnc54)[C@H](O)[C@@H]3O)cc2n1 | < 10 | < 1000
2 | Nc1ncnc2c1c([C@@H]1CCCO1)cn2[C@@H]1O[C@H](COc2ccc3ccc(N4CCC4)nc3c2)[C@@H](O)[C@@H]1F | < 10 | < 1000
3 | CNc1ccc2ccc(OC[C@H]3O[C@@H](n4cc(-c5ccn(C)n5)c5c(N)ncnc54)[C@H](O)[C@@H]3O)cc2n1 | < 10 | < 1000
4 | Cc1coc(-c2cn([C@@H]3O[C@H](COc4ccc5ccc(N6CCC6)nc5c4)[C@@H](O)[C@@H]3F)c3ncnc(N)c23)n1 | < 10 | < 1000
5 | Nc1ncnc2c1c(-n1cccn1)cn2[C@@H]1O[C@H](COc2ccc3ccc(N4CCC4)nc3c2)[C@@H](O)[C@@H]1F | < 10 | < 1000
6 | CNc1ccc2ccc(OC[C@H]3O[C@@H](n4cc(-c5ccc(C)o5)c5c(N)ncnc54)[C@@H](F)[C@@H]3O)cc2n1 | < 10 | < 1000
